Values of other authors as cited in EP0324210A1 (UOP, priority 1988, dated 1989).

Conditions: aqueous solution, 25°C

O=C(O)CC(O)(CC(=O)O)C(=O)O [citric acid]
acid dissociation constant pKa₃: 5.40
